The source made the active and inactive calls.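 Rule for the calls: active = caspase luminescence falls with dose and the half-maximal concentration AC50 from the fitted curve is at or below a set limit; inconclusive = flat fit at 30 to 70% signal loss, or invalid fit; inactive = AC50 above the limit, or signal rises instead.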
These molecules were tested on INS-1E cytokine-induced caspase-3/7, Caspase-Glo luminescence, 48 h (assay: suppression of cytokine-driven beta-cell apoptosis – INS-1E rat cells, luminescence, orthogonal assay for beta-cell apoptosis protection project, dose response (AID 463206)).

Row | SMILES | AC50
1 | COc1cc(CNC(C)c2ccccc2)cc(Br)c1OCc1ccc(F)cc1 (stereo unspecified) | > 26 µM (inactive)
2 | O=C(Nc1nc(-c2ccccn2)cs1)c1cc(Cl)ccc1[N+](=O)[O-] | > 26 µM (inactive)
3 | COc1ccc(-n2cc(-c3ccc(C)cc3)[n+]3c2SCC3)cc1 | > 26 µM (inactive)
4 | O=C(C[C@@H]1C/C=C/CC[C@H](Cc2ccc(F)cc2)C(=O)OC[C@@H](Cc2ccccc2)NC1=O)N[C@H](CO)Cc1ccccc1 | > 26 µM (inactive)
5 | COc1cc2c(cc1OC)C(NC(=O)C(F)(F)F)CNC2=O (stereo unspecified) | > 26 µM (inactive)
6 | COc1cc(SC#N)ccc1N=Cc1c(C)[nH]n(-c2ccc(C)c(C)c2)c1=O | > 26 µM (inactive)
7 | Cc1ccc([N+](=O)[O-])cc1N(CC(=O)Nc1ccc(S(=O)(=O)Nc2cccc(C(F)(F)F)c2)cc1)S(C)(=O)=O | > 26 µM (inactive)
8 | O=C(/C(=C/c1ccc(Cl)cc1)c1nc2ccccc2[nH]1)c1cccs1 | > 26 µM (inactive)
9 | CCOC(=O)N1CCN(S(=O)(=O)c2ccc(C(=O)NNc3nc4ccc(Cl)cc4s3)cc2)CC1 | > 26 µM (inactive)
10 | COC(=O)c1cc(O)cc(OC)c1Oc1cc(C)cc(O)c1C(=O)O | 3.06 µM
11 | Oc1ccc(CNc2ccccc2)c2cccnc12 | > 26 µM (inactive)
12 | CC(Oc1ccc(Cl)cc1Cl)c1nc(-c2ccc(NC(=O)c3cccnc3)cc2)no1 (stereo unspecified) | > 26 µM (inactive)
13 | O=C(NNC(=O)c1cccnc1SCc1cccc([N+](=O)[O-])c1)c1ccc(F)cc1 | > 26 µM (inactive)
14 | COc1ccc(-[n+]2c(-c3ccccc3)cc(-c3ccccc3)cc2-c2ccccc2)cc1 | > 26 µM (inactive)
15 | Cc1ccccc1OCCn1c(C)nc2ccccc21 | > 26 µM (inactive)
16 | CCOC(=O)c1cnc(-n2nc(C)cc2C)nc1NC1CCCC1 | > 26 µM (inactive)
17 | Cc1cc(N2CCN(c3nc4ccccc4s3)CC2)n2ncnc2n1 | > 26 µM (inactive)
18 | Cc1cc(C(=O)N/N=C/c2cc(Br)ccc2OC(=O)c2ccccc2)n[nH]1 | > 26 µM (inactive)
19 | Cc1ccc(/C=N/NC(=O)c2c(-c3ccccc3)noc2C)c(O)c1 | > 26 µM (inactive)
20 | O=C(OCn1ncc(Br)c(Br)c1=O)c1ccccc1Cl | > 26 µM (inactive)
21 | CCOc1ccc(-n2c(-c3ccc(Br)cc3)c[n+]3c2CCCCC3)cc1 | > 26 µM (inactive)
22 | O=C1CSC(c2ccccc2F)N1 (stereo unspecified) | > 26 µM (inactive)
23 | Cc1[nH]c(N=Nc2ccccc2)nc1N=Nc1ccccc1 | > 26 µM (inactive)
24 | O=C(CC1CC2CCC1C2)NCCc1ccc(Cl)cc1 (stereo unspecified) | > 26 µM (inactive)

Row | SMILES | AC50
25 | CCCCCCCCCCOC(=O)Cn1c(COc2ccc(OC)cc2)[n+](C)c2ccccc21 | > 26 µM (inactive)
26 | NC(=S)N/N=C/c1ccc(C23CC4CC(CC(C4)C2)C3)cc1 | > 26 µM (inactive)
27 | COc1ccc(CC(=O)Nc2nc(-c3ccc(F)c(F)c3)cs2)cc1OC | 26.5 µM
28 | O=C1/C(=N\S(=O)(=O)c2cccs2)C([n+]2ccc(CCCc3ccccc3)cc2)=C([O-])c2ccccc21 | > 12 µM (inactive)
29 | Cc1cc(N/N=C/c2c(O)ccc3ccccc23)nc(-c2ccccc2O)n1 | > 26 µM (inactive)
30 | CC(=O)NC(c1cccs1)c1cc(F)c2cccnc2c1O (stereo unspecified) | > 26 µM (inactive)
31 | Oc1c(N=Nc2ccccn2)ccc2ccccc12 | > 26 µM (inactive)
32 | Cc1cc(=O)[nH]c(N/N=C/c2ccccn2)n1 | > 26 µM (inactive)
33 | O=C(NCCc1ccccc1)[C@@H]1CC=C[C@@H]2CCN(Cc3ccc(Cl)c(Cl)c3)C(=O)[C@@H]21 | > 12 µM (inactive)
34 | OCc1ccc(O)c2ncccc12 | > 26 µM (inactive)
35 | Cc1cc(/C=N/n2cnnc2)c(C)n1-c1ccc(OCc2ccccc2F)cc1 | > 26 µM (inactive)
36 | Clc1ccc(C(c2ccc(Cl)cc2)n2cc[n+](CC(OCc3ccc(Cl)cc3Cl)c3ccc(Cl)cc3Cl)c2)cc1 (stereo unspecified) | > 26 µM (inactive)
37 | O=S(=O)(c1ccc(Cl)cc1)N1CCN(c2ncnc3sccc23)CC1 | > 26 µM (inactive)
38 | Cc1cc(C)c[n+](C2=C([O-])c3ccccc3C(=O)/C2=N\S(=O)(=O)c2cccs2)c1 | > 26 µM (inactive)
39 | C=CCNC(=S)N/N=C(\C)c1ccccn1 | > 26 µM (inactive)
40 | CCOc1cccc(/C=N/NC(=O)c2ccc3c(c2)OCCO3)c1O | > 26 µM (inactive)
41 | CC[C@H](C)[C@@H](C(=O)NCCCCCCCCCCC(=O)N1CCN(C(=O)OC(C)(C)C)CC1)n1cc(CCCCCNC(=O)OC(C)(C)C)nn1 | > 26 µM (inactive)
42 | COc1ccc(-c2nc(-c3ccccn3)no2)cc1 | > 26 µM (inactive)
43 | Nc1ccc2c(c1)C(=O)C(=O)c1ccccc1-2 | > 26 µM (inactive)
44 | COc1cnc(-c2ccccn2)nc1Oc1ccc(Cl)c2ccccc12 | > 26 µM (inactive)
45 | CC(C)(C)CN1CCC(Oc2cccc(C(=O)NCCCOc3cccnc3)c2)CC1 | > 26 µM (inactive)
46 | O=[N+]([O-])c1cc(C(F)(F)F)ccc1NCCCCNS(=O)(=O)c1ccc(Cl)cc1 | > 26 µM (inactive)
47 | NNC(=S)Nc1ccc(OC(F)(F)F)cc1 | > 26 µM (inactive)
48 | O=[N+]([O-])/C=C/c1cn(Cc2ccc(F)cc2)c2ccccc12 | > 26 µM (inactive)

Row | SMILES | AC50
49 | CC1=C(C)/C(=N\OS(=O)(=O)c2ccccc2)C=CC1=O | > 26 µM (inactive)
50 | CC(C)c1nc(-c2ccccc2)c(-c2ccccc2)[nH]1 | > 26 µM (inactive)
51 | CCC(C)Sc1ccc(-c2nc3ccc(C)cn3c2NCc2ccccc2)cc1OC (stereo unspecified) | > 26 µM (inactive)
52 | CCc1ccc2[nH]c(=O)c(C3C(C#N)=C(N)Oc4c3ccc3cccnc43)cc2c1 (stereo unspecified) | > 26 µM (inactive)
53 | CCc1ccc(S(=O)(=O)/N=C2\C=C(Nc3ccc(O)cc3)C(=O)c3ccccc32)cc1 | > 26 µM (inactive)
54 | CCN1/C(=C/c2ccc3cc(C)ccc3[n+]2CC)Sc2ccc3sccc3c21 | > 26 µM (inactive)
55 | CCOc1ccc(OCC)c(S(=O)(=O)NCCOC23CC4CC(CC(C4)C2)C3)c1 | 15.9 µM
56 | CCOC(=O)c1c(C)[nH]c(C(=O)N/N=C\c2ccccc2O)c1C | > 26 µM (inactive)
57 | Cn1nc(-c2ccccn2)nc2c(=O)n(C)c(=O)nc1-2 | > 26 µM (inactive)
58 | COc1cccc(/C=N/Nc2ncnc(Cl)c2N)c1O | > 26 µM (inactive)
59 | COc1cc2ccccc2cc1C(=O)Nc1sc2c(c1C(N)=O)CCN(C(C)C)C2 | 9.32 µM
60 | Clc1ccc2nnnc(-c3ccccc3)c2c1 | > 26 µM (inactive)
61 | COc1ccc(/C=N/Nc2cc(C)nc3ccc(Br)cc23)cc1 | > 26 µM (inactive)
62 | Cc1ccc2c(c1)N(C(=O)CCC(=O)NCCCN1CCC(Cc3ccccc3)CC1)CCO2 | 10.8 µM
63 | CCS(=O)(=O)c1ncc(Cl)c(C(=O)Nc2ccc(S(=O)(=O)N3CCC(C)CC3)cc2)n1 | > 26 µM (inactive)
64 | CC(NCC(O)COCCC12CC3CC(CC(C3)C1)C2)c1ccccc1 (stereo unspecified) | > 26 µM (inactive)
65 | Cc1ccccc1N1CCN(Cc2c[nH]c3ccccc23)CC1 | > 26 µM (inactive)
66 | O=C(N/N=C/c1c(O)ccc2ccccc12)c1cccnc1 | > 26 µM (inactive)
67 | COc1ccc(/C=N/Nc2cc(C)nc3ccc(OC)cc23)c(OC)c1 | 10.7 µM
68 | OCCNc1nc(Nc2ccc(Cl)c(Cl)c2)nc2ccccc12 | > 26 µM (inactive)
69 | O=C(Nc1nc2ccc([N+](=O)[O-])cc2s1)c1ccc(S(=O)(=O)N2CCCc3ccccc32)cc1 | > 26 µM (inactive)
70 | S=C(c1cn(CCOc2cccc3ccccc23)c2ccccc12)N1CCCC1 | > 26 µM (inactive)
71 | O=C1C(=O)c2ccccc2-c2ccccc21 | > 26 µM (inactive)
72 | O=C(Nc1ccc(Nc2ccncc2)cc1)c1ccc(Nc2ccnc3ccc([N+](=O)[O-])cc23)cc1[N+](=O)[O-] | > 26 µM (inactive)

Row | SMILES | AC50
73 | CCN(CC)CCC(=O)Nc1cccc2c1C(=O)c1ccccc1C2=O | 2.26 µM
74 | OC(CNC1CCCCC1)COCCOc1ccc(Br)cc1 (stereo unspecified) | > 12 µM (inactive)
75 | FC(F)(F)c1cnc(NNC(=S)Nc2ccccc2Cl)c(Cl)c1 | > 26 µM (inactive)
76 | N=c1c2c(-c3ccccc3)c(-c3ccccc3)n(Cc3ccco3)c2ncn1Cc1ccccc1 | > 26 µM (inactive)
77 | COc1ccc(-c2csc(NC(=O)c3ccccc3NS(=O)(=O)c3ccc(F)c(F)c3)n2)cc1 | > 26 µM (inactive)
78 | CC(C)COC(=O)c1ccc2c(c1O)C(=O)c1ccccc1C2=O | > 26 µM (inactive)
79 | CCC(=O)N1c2ccc(S(=O)(=O)N3CCN(c4ccc([N+](=O)[O-])cc4)CC3)cc2CC1C (stereo unspecified) | > 26 µM (inactive)
80 | O=C1N/C(=N/N=C/c2ccccc2O)SC1Cc1ccc(F)cc1 (stereo unspecified) | > 26 µM (inactive)
81 | CCOc1ccc(-n2c(=O)[nH]cc(C(=O)Nc3ccc(OC)c(OC)c3)c2=O)cc1 | > 26 µM (inactive)
82 | Cc1cc(C)nc(N/N=C/c2cc(Br)ccc2O)n1 | > 26 µM (inactive)
83 | COC(=O)C1CN(C#N)N(c2ccc(Cl)cc2)C12c1ccccc1-c1ccccc12 (stereo unspecified) | > 26 µM (inactive)
84 | c1ccc(-c2nc(NCc3ccco3)c3ccccc3n2)nc1 | > 26 µM (inactive)
85 | Cc1c(C(=O)N/N=C/c2c(O)ccc3ccccc23)nnn1-c1nonc1N | > 26 µM (inactive)
86 | COc1ccc(-n2c(-c3ccc(Br)cc3)c[n+]3c2CCc2ccccc2-3)cc1 | > 26 µM (inactive)
87 | O=C(c1cc(COc2ccc3ncccc3c2)on1)N1CCCCCC1 | > 26 µM (inactive)
88 | Cn1c(SCC(=O)N/N=C/c2ccc([N+](=O)[O-])s2)nnc1-c1ccccc1 | > 26 µM (inactive)
89 | O=C(NNc1c(Cl)cc(Cl)cc1Cl)c1cccc([N+](=O)[O-])c1 | > 26 µM (inactive)
90 | C/C(=N\NC(=O)C(c1ccccc1)c1ccccc1)c1ccccn1 | > 26 µM (inactive)
91 | CN1CCN(C2=C(NS(=O)(=O)c3cccs3)C(=O)c3ccccc3C2=O)CC1 | > 26 µM (inactive)
92 | O=C(CN1CCOCC1)N/N=C/c1c(O)ccc2ccccc12 | > 26 µM (inactive)
93 | COc1cc(NC2CCCCC2O)c2nc(-c3ccc(Cl)cc3)ccc2c1 (stereo unspecified) | > 26 µM (inactive)
94 | O=C(Nc1nc(-c2ccccn2)cs1)c1ccccc1-n1cnnn1 | > 26 µM (inactive)
95 | Cc1ccc(C(=O)Nc2nc(-c3ccccn3)cs2)cc1S(=O)(=O)N1CCOCC1 | > 26 µM (inactive)
96 | CN(Cc1ccccc1)C(=O)c1nc2ccccn2c1CN1CCCC1c1nccs1 (stereo unspecified) | > 26 µM (inactive)

From PubChem BioAssay AID463206 (Broad Institute, 2010)
